Measurements from patent US20060084615A1, “Puerarin derivatives and their medical uses” (priority 2004, published 2006).

Experiments:
[1] = test system: myocardial ischemic rats induced by posterior pituitary injection; assay: Acute myocardial ischemia induced by posterior pituitary extract injection, ECG T wave variation; format: in vivo, SD rats; details: for Amplitude of T wave: i.g. 5 days plus day 6, X ± SD, n = 10; for Effect against myocardial ischemia in rats induced by posterior pituitary injection: doses 0.8 g/kg puerarin, 1.12 g/kg 4ac, 1.20 g/kg 5ac, 1.28 g/kg 6ac (equivalent to 0.8 g/kg puerarin)
Procedure: Puerarin was purchased from Beijing Union Pharmaceutical Factory (PRC). Puerarin derivatives 4ac, 5ac and 6ac were supplied by The Hong Kong Polytechnic University. The puerarin was dissolved in 1:1 of PEG400 and sterilized distilled water to make 0.8 g/kg body weight, 10 ml/kg body weight solutions for i.g. feeding.
Puerarin derivative 4ac was dissolved in 1:1 of PEG400 and sterilized distilled water to make 1.12 g/kg, 10 ml/kg solution for intra-gastro (i.g.) feeding. Puerarin derivative 5ac was dissolved in 1:1 of PEG400 and sterilized distilled water to make 1.20 g/kg, 10 ml/kg solution for i.g. feeding. Puerarin derivative 6ac was dissolved in 1:1 of PEG400 and sterilized distilled water to make 1.28 g/kg, 10 ml/kg solution for ig feeding. The concentrations of each solution were selected such that 0.8 g/kg of equivalent puerarin will be administered to each animal.
Propranolol hydrochloride at 10 mg/tablet, was from the Shantou Jinshi Pharmaceuticals (PRC, batch no: 020802). Propranolol hydrochloride is a drug prescribed for myocardial ischemia. It is expected to decrease the T wave elevation in ECG during myocardial ischemia. The drug was dissolved in sterilized distilled water to make a 0.2 mg/ml, 10 ml/kg solution for i.g. feeding.
Sixty SPF grade SD rats weighing 200±20 g of both sexes were grouped evenly into six groups according to their weight and sex, and fed i.g. according to the following protocol: • a) Normal: distilled water 10 ml/kg; • b) Positive control: propranolol hydrochloride […], 10 ml/kg; • c) Puerarin solution: puerarin 0.8 g/kg, 10 ml/kg; • d) Puerarin derivative 4ac solution: 4ac 1.12 g/kg, 10 ml/kg; • e) Puerarin derivative 5ac solution: 5ac 1.20 g/kg, 10 ml/kg; • f) Puerarin derivative 6ac solution: 6ac 1.28 g/kg, 10 ml/kg.
The rats were administered the respective treatments for five consecutive days. On the sixth day, one hour after the administration of the treatment, the rats were anesthetized with 3% pentobarbital sodium at a dose of 40 mg/kg i.p. Two terminal leads were connected to the rats to record the normal electrocardiograph (ECG).
When the ECG reading became steady, 1 u/kg of posterior pituitary extract injection (obtained from the Nanjing Xintian Biochemical Pharmaceuticals Company Ltd; batch no 020601) was given intraveneously at the tail vein. Posterior pituitary extract induces acute myocardial ischemia. On ECG, the extract causes the T wave to elevate, flatten and sometimes invert. It also elevates the ST segment and lengthens the PR and QT intervals.
The ECG was recorded immediately for 30 minutes. The variations in T wave were calculated and analyzed statistically.

in vivo = assay: in vivo
Procedure: Agilent 1100 HPLC, DAD diode, HP1100 chromatography workstation and Agilent XDB-C18 column (250 mm×4.6 mm D, 5 μm) were used. The pre-column is Agilent XDB-C18 column (12.5 mm×4.6 mm D, 5 μm). Gradient elution was carried according to Table 1 below: […]
Sprague-Dawley (SD) rats weighing 180±20 g, both male and female were provided by the Laboratory Animal Centre of the Guangzhou Traditional Chinese Medicine (TCM) University.
Two hundred and sixty SD rats were randomly divided into 20 groups with 13 rats in each group. The rats were fasted for one day before the test.
Puerarin, 4ac, 5ac and 6ac was dissolved in sterilized water to produce suspension of final dosage of 400 mg/kg, 560 mg/kg, 600 mg/kg and 640 mg/kg, 10 ml/kg and administered orally to the rats.
At t=10, 20, 30, 45, 60, 90, 120 min, 2 h, 4 h, 6 h, 7 h, 8 h and 12 h after administration, 3 ml of blood was collected from the femoral vein of each animal and kept in a centrifuge tube at room temperature for 0.5 h. The blood was centrifuged at 3000 r/min for 15 min and the serum was taken for analysis.
Serum (0.5 ml) was added with 0.2 ml methanol and mixed with a vortex mixer for 1 min. The mixture was then centrifuged at 3000 r/min for 15 min. The supernatant was dried by nitrogen gas flow and the residue was dissolved in 0.2 ml methanol. The mixture was again centrifuged at 10000 r/min for 10 min and the supernatant subjected to HPLC analysis.
The samples were treated, applied and as stated in section 2.2, and the serum concentration of each compound was calculated by the one-point external standard method. The calculated data were processed using the 3P97 pharmacokinetics statistics software supplied by the Mathematics Committee of the China Pharmacology Association.

[2] = 5 s after posterior pituitary injection
[3] = 15 s after posterior pituitary injection
[4] = 30 s after posterior pituitary injection
[5] = 2 min after posterior pituitary injection
[6] = 5 min after posterior pituitary injection
[7] = 10 min after posterior pituitary injection
[8] = oral suspension, SD rats, serum puerarin by HPLC, puerarin 400, 4ac 560, 5ac 600, 6ac 640 mg/kg

| Pharmacokinetic compartment model fitted (3P97 software) (in vivo; rat, in vivo, po) | AUC(0-∞) = area under concentration-time curve (in vivo; rat, in vivo, po, 640 mg/kg) | CL = total body clearance (in vivo; rat, in vivo, po, 640 mg/kg) [mg/kg/min/µg/mL] | SMILES | Amplitude of T wave [1, 2] [μV] | Amplitude of T wave [1, 3] [μV] | Amplitude of T wave [1, 4] [μV] | Amplitude of T wave [1, 5] [μV] | Amplitude of T wave [1, 6] [μV] | Amplitude of T wave [1, 7] [μV] | Effect against myocardial ischemia in rats induced by posterior pituitary injection [1] | Pharmacokinetic compartment model fitted (3P97 software) (in vivo; oral, SD rats) | other results |
| --- | --- | --- | --- | --- | --- | --- | --- | --- | --- | --- | --- | --- |
|  |  |  | CC(C)NCC(O)COc1cccc2ccccc12.Cl (stereo not shown) [+ve control, Propranolol hydrochloride, reference compound] | 16.11 ± 5.30 | 18.51 ± 9.26 | 22.10 ± 11.23 | 30.41 ± 11.58 | 26.62 ± 10.99 | 22.09 ± 11.31 |  |  |  |
| one-compartment open model | 6104.81 ± 275.29 (μg/ml)min | 0.1030 ± 0.0163 | CC(=O)OCC1OC(c2c(O)ccc3c(=O)c(-c4ccc(O)cc4)coc23)C(OC(C)=O)C(OC(C)=O)C1OC(C)=O (stereo not shown) [Compound 4ac, 2″,3″,4″,6″-0-tetraacetylpuerarin] | 15.09 ± 7.62 | 23.23 ± 10.69 | 35.40 ± 10.93 | 36.51 ± 16.02 | 25.60 ± 14.23 | 25.41 ± 10.21 | effective |  | C(max) relative to that of puerarin (in vivo; both, Sprague-Dawley, rat, in vivo, po): 1.90 folds; AUC compared with puerarin (t test) (in vivo; rat, in vivo, po): significantly greater; AUC relative to that of puerarin (in vivo; rat, in vivo, po): 2.24 folds; Bioavailability compared with puerarin (in vivo; rat, in vivo, po): higher than puerarin and other derivatives |
|  |  |  | CC(=O)OC[C@H]1O[C@@H](c2c(OC(C)=O)ccc3c(=O)c(-c4ccc(OC(C)=O)cc4)coc23)[C@H](OC(C)=O)[C@@H](OC(C)=O)[C@@H]1OC(C)=O [Compound 6ac, Hexa-0-acetyl puerarin] | 16.33 ± 9.18 | 29.09 ± 16.50 | 39.12 ± 15.21 | 41.05 ± 15.60 | 29.14 ± 10.60 | 22.11 ± 9.81 | effective | two-compartment open model | AUC(0-∞) = area under concentration-time curve (in vivo; [8]): 3149.69 ± 467.26 (μg/ml)min; C (max) = maximum concentration reached by the compound (in vivo; [8]): 4932.4 ± 69.5 ng/mL; CL = total body clearance (in vivo; [8]): 0.1696 ± 0.1206 mg/kg/min/µg/mL; T(peak) = time the compound takes to reach the absorption peak (in vivo; [8]): 81.39 ± 10.02 min; t1/2(a) = half-life of absorption (in vivo; [8]): 1.86617 ± 1.811 h; t1/2(β) = half-life of clearance (in vivo; [8]): 44.4162 ± 6.3323 h |
| two-compartment open model | 4566.95 ± 762.64 (μg/ml)min | 0.1011 ± 0.0425 | CC(=O)OCC1OC(c2c(OC(C)=O)ccc3c(=O)c(-c4ccc(O)cc4)coc23)C(OC(C)=O)C(OC(C)=O)C1OC(C)=O (stereo not shown) [Compound 5ac, 7,2″,3″,4″,6″-0-pentaacetylpuerarin] | 19.09 ± 6.20 | 29.42 ± 9.39 | 37.61 ± 13.43 | 40.11 ± 16.04 | 24.50 ± 13.63 | 24.39 ± 14.28 | effective |  | t1/2(a) = half-life of absorption (in vivo; rat, in vivo, po, 640 mg/kg): 0.368613 ± 0.311893 h; t1/2(β) = half-life of clearance (in vivo; rat, in vivo, po, 640 mg/kg): 7.0838 ± 4.228 h |

| SMILES | Pharmacokinetic compartment model fitted (3P97 software) (in vivo; rat, in vivo, po) | AUC(0-∞) = area under concentration-time curve (in vivo; rat, in vivo, po, 640 mg/kg) | CL = total body clearance (in vivo; rat, in vivo, po, 640 mg/kg) [mg/kg/min/µg/mL] | Amplitude of T wave [1, 2] [μV] | Amplitude of T wave [1, 3] [μV] | Amplitude of T wave [1, 4] [μV] | Amplitude of T wave [1, 5] [μV] | Amplitude of T wave [1, 6] [μV] | Amplitude of T wave [1, 7] [μV] | Effect against myocardial ischemia in rats induced by posterior pituitary injection [1] | Pharmacokinetic compartment model fitted (3P97 software) (in vivo; oral, SD rats) | other results |
| --- | --- | --- | --- | --- | --- | --- | --- | --- | --- | --- | --- | --- |
| O=c1c(-c2ccc(O)cc2)coc2c([C@@H]3O[C@H](CO)[C@@H](O)[C@H](O)[C@H]3O)c(O)ccc12 [Puerarin] |  | 2729.94 ± 491.99 (μg/ml)min | 0.2032 ± 0.0541 | 18.06 ± 10.09 | 25.69 ± 11.21 | 31.22 ± 14.59 | 39.20 ± 16.11 | 29.10 ± 16.23 | 25.01 ± 10.40 | effective | two-compartment open model | half-life (in vivo; both, Sprague-Dawley, rat, in vivo, po, 640 mg/kg, t1/2(a) = half-life of absorption): 0.89 ± 0.189 h; half-life (in vivo; both, Sprague-Dawley, rat, in vivo, po, 640 mg/kg, t1/2(β) = half-life of clearance): 1.015 ± 0.00719 h |
